Where only a bound is given, the exact number is not on record here.

The text below walks through data of US12234245B2, “Sulfonimidamide compounds as inhibitors of interleukin-1 activity” (Genentech, Inc., priority 2018, dated 2025).

Chain of NLRP3 inflammasome (Q96P20 whole entry, the tested form may be a part): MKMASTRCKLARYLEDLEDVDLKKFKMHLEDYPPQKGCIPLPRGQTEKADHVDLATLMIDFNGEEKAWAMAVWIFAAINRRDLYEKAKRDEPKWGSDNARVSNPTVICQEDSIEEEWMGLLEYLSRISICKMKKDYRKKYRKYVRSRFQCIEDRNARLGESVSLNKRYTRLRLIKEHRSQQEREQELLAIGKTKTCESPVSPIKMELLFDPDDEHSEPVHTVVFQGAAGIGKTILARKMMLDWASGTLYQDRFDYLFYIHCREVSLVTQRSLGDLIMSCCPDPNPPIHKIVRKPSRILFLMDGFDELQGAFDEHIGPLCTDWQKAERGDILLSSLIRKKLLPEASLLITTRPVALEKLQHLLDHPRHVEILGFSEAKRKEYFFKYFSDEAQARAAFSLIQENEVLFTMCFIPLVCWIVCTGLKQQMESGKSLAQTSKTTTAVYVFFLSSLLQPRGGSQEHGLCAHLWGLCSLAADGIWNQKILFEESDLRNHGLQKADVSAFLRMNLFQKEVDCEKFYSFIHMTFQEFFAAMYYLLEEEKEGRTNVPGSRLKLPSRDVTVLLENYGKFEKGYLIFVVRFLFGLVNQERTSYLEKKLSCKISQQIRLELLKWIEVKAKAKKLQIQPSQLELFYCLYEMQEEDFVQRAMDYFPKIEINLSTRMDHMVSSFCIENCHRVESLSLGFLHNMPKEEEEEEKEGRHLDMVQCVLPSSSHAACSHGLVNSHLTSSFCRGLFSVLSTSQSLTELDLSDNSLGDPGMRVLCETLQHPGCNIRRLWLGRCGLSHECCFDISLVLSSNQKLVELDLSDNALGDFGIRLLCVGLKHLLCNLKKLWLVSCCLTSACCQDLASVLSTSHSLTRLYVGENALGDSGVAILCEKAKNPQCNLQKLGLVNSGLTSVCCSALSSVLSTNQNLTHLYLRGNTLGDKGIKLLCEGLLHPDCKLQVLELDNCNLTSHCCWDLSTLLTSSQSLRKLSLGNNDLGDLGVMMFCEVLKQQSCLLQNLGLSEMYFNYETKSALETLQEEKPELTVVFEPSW

This assay deals with NLRP3 inflammasome (Homo sapiens, UniProt Q96P20). In words: THP-1 ASC-GFP speck assay. Format: cell-based. Conditions: THP-1 ASC-GFP cells, PMA differentiated, LPS primed, 10 μM nigericin; read-out: THP1 ASC Speck IC50. Also on record: host or cells: THP-1 ASC-GFP cells, PMA-differentiated, LPS-primed, nigericin-stimulated. The protocol:
THP-1 ASC-GFP cell line was purchased from Invivogen, San Diego, for inflammasome activation assay. THP-1 ASC-GFP cells stably express a 37.6 kDa ASC::GFP fusion protein that enables monitoring of spec formation by microscopy after activation of NLRP3 dependent inflammasome pathway. Cells were maintained at a density of 600,000 cells/mL in growth media consisting of RPMI 1640, 2 mM L-glutamine, 25 mM HEPES and 10% heat inactivated fetal bovine serum at 37° C. and 5% CO2. Cells were passaged every 3-4 days and used for assays for up to 20 passages.
THP-1 ASC-GFP cells were collected by centrifuging cells at 800 RPM for 5 minutes. Cell culture supernatant was removed and cells were re-suspended in fresh media at density of 1×10^6 cells/mL in assay media consisting of RPMI 1640, 2 mM L-glutamine, 25 mM HEPES and 10% heat inactivated fetal bovine serum. Phorbol 12-myristate 13-acetate (PMA) (Invivogen, tlrl-pma) was added to the cell suspension at a final concentration of 500 ng/ml and mixed thoroughly. 40,000 cells were added per well of a 384 well plate and differentiated into macrophages overnight at 37° C. and 5% CO2. Cells were primed with 1 μg/mL of lipopolysaccharide (Invivogen Ultrapure lipopolysaccharide from E. coli, tlrl-3pelps) in assay media for 3 hours at 37° C. and 5% CO2. After priming, media was removed and THP-1 ASC-GFP cells were preincubated with serially diluted test compounds with starting concentration of 40 μM followed by 2-fold dilution for a 20-point curve or vehicle (DMSO) for 30 min in assay media at 37° C. and 5% CO2. Cells were then stimulated with 10 μM nigericin (Invivogen, tlrl-nig-5) for 90 min at 37° C. and 5% CO2 to activate NLRP3 dependent inflammasome pathway and spec formation. After stimulation, cells were fixed with 4.8% paraformaldehyde (Electron Microscopy Sciences #15710-S) and incubated at room temperature for 15 min. Cells were then washed 3-times with 100 μL of phosphate buffered saline and permeabilized in the presence of premeablization/block buffer for 20 min at room temperature. Cells were then washed 3-times with 100 μL phosphate buffered saline and incubated for 1 hr at room temperature in the presence of hoechst. After staining with Hoechst, cells were washed 3-times with 100 μL phosphate buffered saline and imaged for ASC spec formation.
THP-1 ASC-GFP cells were imaged in 488 and Hoechst channels. Hoechst channel was used for cell count and 488 channel was used to identify number of GFP ASC specks in imaged fields. Percentage of cells with a spec was calculated by dividing the number of GFP positive spots by total number of cells.
Broadly, the IC50 is the concentration that gives 50% inhibition. For the compound `CNC1CCOc2c(S(N)(=O)=NC(=O)Nc3c4c(cc5c3CCC5)CCC4)cnn2C1` (single isomer, unassigned) [Example 106], the IC50 was determined as 150 nM. With `CC1(C)COc2c(S(N)(=O)=NC(=O)Nc3c4c(cc5c3CCC5)CCC4)cnn2C1` (single isomer, unassigned) [Example 81] the figure was 20 nM; with `CC1CCc2cc3c(c(NC(=O)N=S(N)(=O)c4cnn5c4OCC5)c21)CCC3` (single isomer, unassigned) [Example 144], 56 nM. With `COC1CCn2ncc(S(N)(=O)=NC(=O)Nc3c4c(cc5c3CCC5)CCC4)c2OC1` (single isomer, unassigned) [Example 93] the figure was 360 nM; with `CC1(C)Cn2ncc(S(N)(=O)=NC(=O)Nc3c4c(cc5c3CCC5)CCC4)c2O1` (single isomer, unassigned) [Example 140], 560 nM; with `COc1cc(-c2ccc(NC(=O)N=S(N)(=O)c3cnn4c3OCC(OC)C4)c3c2CCC3)ccn1` (single isomer, unassigned) [Example 152], 4100 nM.

Regarding `COc1cc(-c2ccc(NC(=O)N=S(N)(=O)c3cnn4c3OCC(OC)C4)c3c2CCC3)ccn1` (single isomer, unassigned) [Example 151], the IC50 is over 20000 nM.

`COC1COc2c(S(=O)(=NC(=O)Nc3c4c(cc5c3CCC5)CCC4)NC(C)=O)cnn2C1` (single isomer, unassigned) [Example 115]: the IC50 worked out at 2500 nM.

On to `CO[C@H]1CCOc2c([S@@](=O)(=NC(=O)Nc3c4c(cc5c3CCC5)CCC4)NC#N)cnn2C1` (single isomer, unassigned) [Example 112], for which the IC50 was found to be 610 nM. With `CNC1CCn2ncc(S(N)(=O)=NC(=O)Nc3c4c(cc5c3CCC5)CCC4)c2OC1` (single isomer, unassigned) [Example 130] the figure was 14000 nM; with `CC1(C)Cn2ncc(S(N)(=O)=NC(=O)Nc3c4c(cc5c3CCC5)CCC4)c2O1` (single isomer, unassigned) [Example 139], 4.3 nM. With `CNCCOc1cc(C(C)C)c(NC(=O)N=S(N)(=O)c2cnn3c2OCCC3)c(C(C)C)n1` (single isomer, unassigned) [Example 70] the figure was over 20000 nM; with `CC(C)c1nn(CC(F)F)c(C(C)C)c1NC(=O)N=S(N)(=O)c1cnn2c1OCCC2` (single isomer, unassigned) [Example 97], 1300 nM; with `CC1CCc2cc3c(c(NC(=O)N=S(N)(=O)c4cnn5c4OCCC5)c21)CCC3` (single isomer, unassigned) [Example 128], 1700 nM. Take `NS(=O)(=NC(=O)Nc1c2c(cc3c1CCC3)CCC2)c1cnn2c1NCCC2` (single isomer, unassigned) [Example 73]: the IC50 is over 20000 nM.

Consider `COc1cc(C(C)C)c(NC(=O)N=S(N)(=O)c2cnn3c2OCCC3)c(C(C)C)n1` (single isomer, unassigned) [Example 102], for which the half-maximal inhibitory concentration (IC50) was 5100 nM.

Take `COC1COc2c(S(N)(=O)=NC(=O)Nc3c4c(cc5c3C(C)CC5)CCC4)cnn2C1` (single isomer, unassigned) [Example 149]: the half-inhibitory concentration (IC50) was 650 nM. With `COc1cc(-c2ccc3c(c2NC(=O)N=S(N)(=O)c2cnn4c2OCCC4)CCO3)ccn1` (single isomer, unassigned) [Example 157] the figure was 710 nM; with `COC1CCOc2c(S(N)(=O)=NC(=O)Nc3c4c(cc5c3CCC5)CCC4)cnn2C1` (single isomer, unassigned) [Example 91], 490 nM; with `NS(=O)(=NC(=O)Nc1c2c(cc3c1CC3)CCC2)c1cnn2c1OCCC2` (single isomer, unassigned) [Example 141], 1600 nM. The figure for `CC1CCc2cc3c(c(NC(=O)N=S(N)(=O)c4cnn5c4OCC(C)(C)C5)c21)CCC3` (single isomer, unassigned) [Example 136] is 3800 nM. The figure for `CC1CCc2cc3c(c(NC(=O)N=S(N)(=O)c4cnn5c4OCC5)c21)CCC3` (single isomer, unassigned) [Example 143] is 1200 nM.

In the case of `CNC1CCn2ncc(S(N)(=O)=NC(=O)Nc3c4c(cc5c3CCC5)CCC4)c2OC1` (single isomer, unassigned) [Example 131], the IC50 was 920 nM. The figure for `CC1(C)COc2c(S(N)(=O)=NC(=O)Nc3c4c(cc5c3CC(F)C5)CCC4)cnn2C1` (single isomer, unassigned) [Example 155] is 8 nM. The figure for `NS(=O)(=NC(=O)Nc1c2c(cc3c1CC3)CCC2)c1cnn2c1OCCC2` (single isomer, unassigned) [Example 142] is 84 nM. With `CO[C@@H]1CCOc2c([S@@](=O)(=NC(=O)Nc3c4c(cc5c3CCC5)CCC4)NC#N)cnn2C1` (single isomer, unassigned) [Example 122] the figure was 800 nM. For the compound `CC1(C)COc2c(S(=O)(=NC(=O)Nc3c4c(cc5c3CCC5)CCC4)NC#N)cnn2C1` (racemic) [Example 94, N-cyano-N′-((1,2,3,5,6,7-hexahydro-s-indacen-4-yl)carbamoyl)-6,6-dimethyl-6,7-dihydro-5H-pyrazolo[5,1-b][1,3]oxazine-3-sulfonimidamide], the IC50 was found to be 360 nM. The figure for `COC1COc2c(S(=O)(=NC(=O)Nc3c4c(cc5c3CCC5)CCC4)NC(C)=O)cnn2C1` (single isomer, unassigned) [Example 116] is 2100 nM; for `NS(=O)(=NC(=O)Nc1c2c(cc3c1CCC3)CCC2)c1cnn2c1OCC2` (single isomer, unassigned) [Example 125] it is 1700 nM. With `CC1CCn2ncc(S(N)(=O)=NC(=O)Nc3c4c(cc5c3CCC5)CCC4)c2OC1` (single isomer, unassigned) [Example 78] the figure was 93 nM; with `NS(=O)(=NC(=O)Nc1c2c(cc3c1CCC3)CCC2)c1cnn2c1CCOCC2` (single isomer, unassigned) [Example 117], 4300 nM. The figure for `NS(=O)(=NC(=O)Nc1c2c(cc3c1CCC3)CCC2)c1cnn2c1C(F)(F)CCC2` (single isomer, unassigned) [Example 134] is over 20000 nM; for `COC1CCn2ncc(S(N)(=O)=NC(=O)Nc3c4c(cc5c3CCC5)CCC4)c2OC1` (single isomer, unassigned) [Example 86] it is over 20000 nM. With `COc1cc(-c2ccc3c(c2NC(=O)N=S(N)(=O)c2cnn4c2OCCC4)CCO3)ccn1` (single isomer, unassigned) [Example 158], the IC50 turned out to be 25 nM. The figure for `CCn1nc(C(C)C)c(NC(=O)N=S(N)(=O)c2cnn3c2OCCC3)c1C(C)C` (single isomer, unassigned) [Example 99] is 1700 nM. The figure for `CNCCOc1cc(C(C)C)c(NC(=O)N=S(N)(=O)c2cnn3c2OCCC3)c(C(C)C)n1` (single isomer, unassigned) [Example 71] is over 20000 nM. With `CO[C@@H]1CCOc2c([S@](=O)(=NC(=O)Nc3c4c(cc5c3CCC5)CCC4)NC#N)cnn2C1` (single isomer, unassigned) [Example 121] the figure was 2700 nM. As to `COC1CCOc2c(S(N)(=O)=NC(=O)Nc3c4c(cc5c3CCC5)CCC4)cnn2C1` (single isomer, unassigned) [Example 89], the IC50 was over 20000 nM.

Take `CN1CCCn2ncc(S(N)(=O)=NC(=O)Nc3c4c(cc5c3CCC5)CCC4)c21` (single isomer, unassigned) [Example 108]: the IC50 is over 20000 nM. `CCn1nc(C(C)C)c(NC(=O)N=S(N)(=O)c2cnn3c2OCCC3)c1C(C)C` (single isomer, unassigned) [Example 98]: the IC50 was over 20000 nM.

In the case of `CC1(C)COc2c(S(N)(=O)=NC(=O)Nc3c4c(cc5c3CC(F)C5)CCC4)cnn2C1` (single isomer, unassigned) [Example 154], the IC50 amounted to 1800 nM.

With `CC1CCOc2c(S(N)(=O)=NC(=O)Nc3c4c(cc5c3CCC5)CCC4)cnn2C1` (single isomer, unassigned) [Example 65], the IC50 was 340 nM. The figure for `NS(=O)(=NC(=O)Nc1c2c(cc3c1CCC3)CCC2)c1cnn2c1SCCC2` (single isomer, unassigned) [Example 100] is 2700 nM; for `CC1CCc2cc3c(c(NC(=O)N=S(N)(=O)c4cnn5c4OCC(C)(C)C5)c21)CCC3` (single isomer, unassigned) [Example 135] it is over 20000 nM.
